Data published in ChEMBL document CHEMBL5360574, “Optimization of potent, selective and orally bioavailable biphenyl scaffold as FABP4 inhibitors for anti-inflammation” (Eur J Med Chem, 2023).
The source made the active and inactive calls. No cut-off for these calls is given here.

Tests used:
[1] = target: Fatty acid-binding protein, adipocyte (Homo sapiens, UniProt P15090); assay: Displacement of 1,8-ANS from FABP4 (unknown origin) assessed as inhibition constant by fluorescence based analysis
Fatty acid-binding protein, adipocyte, sequence (P15090 whole entry): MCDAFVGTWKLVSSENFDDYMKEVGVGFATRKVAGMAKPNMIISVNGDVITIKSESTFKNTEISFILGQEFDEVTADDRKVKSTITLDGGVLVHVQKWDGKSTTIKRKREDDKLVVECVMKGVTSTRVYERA

[2] = Toxicity in LPS-induced acute inflammation C57BL/6J mouse model assessed as effect on liver damage at 50 mg/kg, po qd via gavage administered for 4 days followed by LPS induction by hematoxylin and eosin staining based microscopic analysis; format: organism-based; settings: in vivo, 96 h, time 4 day
3T3-L1 = assay: Cytotoxicity against mouse 3T3-L1 cells assessed as reduction in cell growth at 100 uM measured after 24 hrs by CCK-8 assay; format: toxicity, cell-based; settings: 3t3-l1, 24 h
[3] = Toxicity in LPS-induced acute inflammation C57BL/6J mouse model assessed as effect on spleen damage at 50 mg/kg, po qd via gavage administered for 4 days followed by LPS induction by hematoxylin and eosin staining based microscopic analysis; format: organism-based; settings: in vivo, 96 h, time 4 day
Mus musculus [4] = assay: Antiinflammatory activity in LPS-induced acute inflammation C57BL/6J mouse model assessed as reduction in ALT level in serum at 50 mg/kg, po qd via gavage administered for 4 days followed by LPS induction; format: functional, organism-based; settings: time 4.0 day
THP-1 [5] = assay: Cytotoxicity against human THP-1 cells assessed as reduction in cell growth at 80 uM measured after 24 hrs by CCK-8 assay; format: toxicity, cell-based; settings: thp-1, 24 h
Mus musculus [6] = assay: Antiinflammatory activity in LPS-induced acute inflammation C57BL/6J mouse model assessed as reduction in AST level in serum at 50 mg/kg, po qd via gavage administered for 4 days followed by LPS induction; format: functional, organism-based; settings: time 4.0 day
[7] = Toxicity in LPS-induced acute inflammation C57BL/6J mouse model assessed as change in body weight at 50 mg/kg, po qd via gavage administered for 4 days followed by LPS induction; format: organism-based; settings: in vivo, 96 h, time 4 day
THP-1 [8] = assay: Antiinflammatory activity in LPS-induced human THP-1 cells assessed as reduction in MCP-1 mRNA expression at 25 uM incubated for 24 hrs by RT-PCR analysis; format: functional, cell-based
Mus musculus [9] = assay: Antiinflammatory activity in LPS-induced acute inflammation C57BL/6J mouse model assessed as reduction in MCP-1 level in serum at 50 mg/kg, po qd via gavage administered for 4 days followed by LPS induction; format: functional, organism-based; settings: time 4.0 day
[10] = Metabolic stability in mouse liver microsomes assessed as half life at 0.1 uM measured upto 60 mins in presence of NADPH by LC-MS/MS analysis; format: ADME, Microsome
[11] = target: Fatty acid-binding protein, heart (Homo sapiens, UniProt P05413); assay: Displacement of 1,8-ANS from FABP3 (unknown origin) assessed as inhibition constant by fluorescence based analysis
Fatty acid-binding protein, heart, sequence (P05413 whole entry): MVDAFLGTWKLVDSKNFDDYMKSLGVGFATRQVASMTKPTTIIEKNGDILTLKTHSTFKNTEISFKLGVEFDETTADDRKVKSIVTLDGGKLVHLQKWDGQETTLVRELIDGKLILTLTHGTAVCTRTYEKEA

[12] = Metabolic stability in mouse liver microsomes assessed as intrinsic clearance at 0.1 uM measured per gram protein measured upto 60 mins in presence of NADPH by LC-MS/MS analysis; format: ADME, Microsome; settings: 1 h
[13] = Metabolic stability in mouse liver microsomes assessed as intrinsic clearance at 0.1 uM measured upto 60 mins in presence of NADPH by LC-MS/MS analysis; format: ADME, Microsome; settings: 1 h
[14] = MRT in ICR mouse at 25 mg/kg, po measured upto 24 hrs by LC-MS/MS analysis; format: ADME, organism-based; settings: in vivo
[15] = Volume of distribution at steady state in ICR mouse at 3 mg/kg, iv measured upto 24 hrs by LC-MS/MS analysis; format: ADME, organism-based; settings: in vivo, read-out: Vdss
[16] = Half life in ICR mouse at 25 mg/kg, po measured upto 24 hrs by LC-MS/MS analysis; format: ADME, organism-based; settings: in vivo
THP-1 [17] = assay: Antiinflammatory activity in LPS-induced human THP-1 cells assessed as inhibition of MCP-1 secretion at 1 uM pre-incubated with compound for 18 hrs followed by LPS induction measured after 6 hrs by ELISA method; format: functional, cell-based; settings: time 24.0 hrs
[18] = Half life in ICR mouse at 3 mg/kg, iv measured upto 24 hrs by LC-MS/MS analysis; format: ADME, organism-based; settings: in vivo
[19] = Oral bioavailability in ICR mouse at 25 mg/kg measured upto 24 hrs by LC-MS/MS analysis; format: ADME, organism-based; settings: in vivo
[20] = Cmax in ICR mouse at 25 mg/kg, po measured upto 24 hrs by LC-MS/MS analysis; format: ADME, organism-based; design: dose 25 mg/kg, time < 24 hrs, route po; settings: in vivo
[21] = Tmax in ICR mouse at 25 mg/kg, po measured upto 24 hrs by LC-MS/MS analysis; format: ADME, organism-based; settings: in vivo
[22] = AUC(0 to 24 hrs) in ICR mouse at 3 mg/kg, iv measured upto 24 hrs by LC-MS/MS analysis; format: ADME, organism-based; design: dose 3 mg/kg, time < 24 hrs, route iv; settings: in vivo
[23] = Clearance in ICR mouse at 3 mg/kg, iv measured upto 24 hrs by LC-MS/MS analysis; format: ADME, organism-based; settings: in vivo
[24] = AUC(0 to 24 hrs) in ICR mouse at 25 mg/kg, po measured upto 24 hrs by LC-MS/MS analysis; format: ADME, organism-based; design: time < 24 hrs, dose 25 mg/kg, route po; settings: in vivo
[25] = MRT in ICR mouse at 3 mg/kg, iv measured upto 24 hrs by LC-MS/MS analysis; format: ADME, organism-based; settings: in vivo

With `O=C(O)C1CCc2ccc(-c3cccc(Cl)c3OCC3CCCC3)cc21` (centres undefined) the Ki [1] was 1730 nM.
For `Cc1ccc(-c2cccc(Cl)c2-c2ccc3c(c2)CCO3)cc1C(=O)O`, the Ki [1] was 320 nM.
With `CCc1c(-c2ccccc2)c(-c2ccccc2)nn1-c1ccccc1-c1cccc(OCC(=O)O)c1` the Activity [2] was “Non-Toxic”, the Activity (3T3-L1) was “Non-Toxic” and the Activity [3] was “Non-Toxic”. The Activity (Mus musculus [4]) was “Active”, the Activity (THP-1 [5]) was “Non-Toxic” and the Activity (Mus musculus [6]) was “Active”. The Activity [7] was “Non-Toxic”, the Activity (THP-1 [8]) was “Active” and the Activity (Mus musculus [9]) was “Active”.
`O=C(O)C1CCc2ccc(-c3cccc(Cl)c3OCC3CCCCC3)cc21` (centres undefined) gave a Ki [1] of 1800 nM.
Compound `O=C(O)C1CCc2ccc(-c3cccc(Cl)c3OC3CCC3)cc21` (centres undefined) has a Ki [1] of 790 nM.
For `O=C(O)C1CCc2ccc(-c3cccc(Cl)c3-c3ccc4c(c3)CCO4)cc21` (centres undefined), the half-life at 0.1 µM [10] was 53 min, the Activity (3T3-L1) was “Non-Toxic” and the Ki [1] was 580 nM. The Activity (THP-1 [5]) was “Non-Toxic”, the Ki [11] was 18.1 µM and the Activity (THP-1 [8]) was “Active”. It also gave a CLH [12] of 39.4 mL/min/g and a CLH [13] of 2.66 mL/min.
`CC(C(=O)O)c1cccc(-c2cccc(Cl)c2-c2ccc3c(c2)CCO3)c1` (centres undefined) showed a Ki [1] of 1470 nM.
For `O=C(O)CCc1cccc(-c2cccc(Cl)c2-c2ccc3c(c2)CCO3)c1`, the Ki [1] was 1810 nM.
`CS(=O)(=O)Nc1ccc(-c2cccc(Cl)c2-c2ccc3c(c2)CCO3)cc1C(=O)O` gave a Ki [1] of 330 nM.
With `Nc1ccc(-c2cccc(Cl)c2-c2ccc3c(c2)CCO3)cc1C(=O)O` the Ki [1] was 430 nM.
`O=C(O)C1CCc2ccc(-c3cccc(Cl)c3OCC3CCC3)cc21` (centres undefined) gave a Ki [1] of 750 nM.
`O=C(O)c1cc(-c2cccc(Cl)c2-c2ccc3c(c2)CCO3)ccc1O` gave a Ki [1] of 280 nM.
`O=C(O)C1CCc2ccc(-c3cccc(Cl)c3OCc3ccccc3)cc21` (centres undefined) gave a Ki [1] of 1320 nM.
Work on `O=C(O)c1cc(-c2cccc(Cl)c2-c2ccc3c(c2)CCO3)ccc1[N+](=O)[O-]` yielded a Ki [1] of 300 nM.
`O=C(O)c1cc(-c2cccc(Cl)c2-c2ccc3c(c2)OCO3)ccc1C(F)(F)F` gave a Ki [1] of 1690 nM.
For `O=C(O)c1ccccc1Nc1cccc(Cl)c1-c1ccc2c(c1)CCO2`, the Activity (3T3-L1) was “Non-Toxic”, the Activity (THP-1 [5]) was “Non-Toxic” and the Ki [11] was 0.92 µM.
Compound `O=C(O)c1cccc(-c2cccc(Cl)c2-c2ccc3c(c2)CCO3)c1` has a Ki [1] of 480 nM.
With `O=C(O)C1CCc2ccc(-c3cccc(Cl)c3-c3ccc4[nH]ncc4c3)cc21` (centres undefined) the Ki [1] was 760 nM.
In the case of `O=C(O)c1cc(-c2cccc(Cl)c2-c2ccc3nonc3c2)ccc1C(F)(F)F`, the Ki [1] is reported as 920 nM.
For `O=C(O)C1CCc2ccc(-c3cccc(Cl)c3-c3ccc4ocnc4c3)cc21` (centres undefined), the Ki [1] was 740 nM.
With `O=C(O)C1CCc2ccc(-c3cccc(Cl)c3-c3ccc4c(c3)OCO4)cc21` (centres undefined) the Ki [1] was 790 nM.
In the case of `O=C(O)Cc1cccc(-c2cccc(Cl)c2-c2ccc3c(c2)CCO3)c1`, the Ki [1] is reported as 350 nM.
In the case of `O=C(O)c1cc(O)cc(-c2cccc(Cl)c2-c2ccc3c(c2)CCO3)c1`, the Ki [1] is reported as 550 nM.
Work on `O=C(O)c1cc(-c2cccc(Cl)c2-c2ccc3occc3c2)ccc1C(F)(F)F` yielded a Ki [1] of 720 nM.
In the case of `O=C(O)c1cc(-c2cccc(Cl)c2-c2ccc3c(c2)CCO3)ccc1C(F)(F)F`, the Activity [2] is reported as “Non-Toxic”, the half-life at 0.1 µM [10] is reported as 534 min and the Activity (3T3-L1) is reported as “Non-Toxic”. For the same compound, the Ki [1] was 510 nM, the Activity [3] was “Non-Toxic” and the Activity (Mus musculus [4]) was “Active”. The MRT [14] was 5.3 h, the Activity (THP-1 [5]) was “Non-Toxic” and the Ki [11] was 33 µM. The Vd [15] was 3.32 L/kg, the half-life [16] was 206 min and the Activity (THP-1 [17]) was “Active”. The half-life [18] was 338 min, the bioavailability [19] was 89.4% and the Activity (Mus musculus [6]) was “Active”. The Activity [7] was “Non-Toxic”, the Activity (THP-1 [8]) was “Active” and the CLH [12] was 3.94 mL/min/g. For the same compound, the Cmax [20] was 15500 ng/mL, the Tmax [21] was 15 min and the AUC(0-t) at 24 h [22] was 3600 ng·h/mL. It also gave a clearance [23] of 12.5 mL/min/kg, an AUC(0-t) at 24 h [24] of 26800 ng·h/mL and a CLH [13] of 0.266 mL/min. The MRT [25] was 4.04 h and the Activity (Mus musculus [9]) was “Active”.
For `O=C(O)C1CCc2ccc(-c3cccc(Cl)c3-c3ccc4nonc4c3)cc21` (centres undefined), the Ki [1] was 2370 nM.
`O=C(O)C1CCc2ccc(-c3cccc(Cl)c3-c3ccc4occc4c3)cc21` (centres undefined) showed a Ki [1] of 690 nM.
